In PubChem BioAssay AID1794830:
Inconclusive results are not listed.

Target: Solute carrier family 2, facilitated glucose transporter member 1 (Homo sapiens) (UniProt P11166)
Assay: SLC2A1-mediated glucose transport in cells – cell-based, flow cytometry, glucose FRET sensor, HEK293 JumpIN TRex, wild type, dose response (AID 1794830)
Conditions: HEK293 JumpIN SLC2A1-OE

Chain of Solute carrier family 2, facilitated glucose transporter member 1 (Homo sapiens) (P11166 whole entry, looked up): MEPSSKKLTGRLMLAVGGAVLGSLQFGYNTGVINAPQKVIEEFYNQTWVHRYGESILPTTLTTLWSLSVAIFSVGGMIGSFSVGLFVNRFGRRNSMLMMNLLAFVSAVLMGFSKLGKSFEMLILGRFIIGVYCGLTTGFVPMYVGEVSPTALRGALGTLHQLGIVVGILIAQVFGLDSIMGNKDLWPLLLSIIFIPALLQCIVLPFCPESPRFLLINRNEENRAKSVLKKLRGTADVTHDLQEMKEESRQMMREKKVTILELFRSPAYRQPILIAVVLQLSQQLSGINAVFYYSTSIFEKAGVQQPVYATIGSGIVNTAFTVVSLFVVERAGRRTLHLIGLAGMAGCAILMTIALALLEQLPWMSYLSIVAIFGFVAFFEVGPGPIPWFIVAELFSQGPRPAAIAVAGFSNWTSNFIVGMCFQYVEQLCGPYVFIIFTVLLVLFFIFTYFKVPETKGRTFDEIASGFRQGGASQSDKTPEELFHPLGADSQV

- EC50 (substrate transport, FRET signal increase): 527 µM
SMILES: OC[C@H]1OC(O)[C@H](O)[C@@H](O)[C@@H]1O (stereo partly specified)
